Test results published in patent US12391679B2, “Benzamide-substituted bicyclic imidazo- and pyrazolo-fused -pyridine, -pyrimide, and -pyridazine compounds for treatment of inflammatory diseases” (ONCO3R Therapeutics BV, priority 2019, dated 2025).

Assays:
[1] = target: T1, SIK1 (Homo sapiens, UniProt P57059); assay: ADP-Glo kinase assay, SIK1; assay type: biochemical
T1 construct: purchased Carna Biosciences 02-131
Procedure, shortened: (§1)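 Kinase reactions ran 120 min at room temperature after ATP addition to enzyme-substrate mix. Remaining ATP was depleted (40 min) and ADP converted to ATP for luciferase detection (30 min), signal rising with activity. Final 1% DMSO and 10 μM staurosporine served as negative and positive controls.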

[2] = target: T2, SIK3 (Homo sapiens, UniProt Q9Y2K2); assay: ADP-Glo kinase assay, SIK3; assay type: biochemical
T2 construct: purchased SignalChem S12-11G-100
Procedure, shortened: as §1

[3] = tested on: LPS-induced TNFα in monocyte-derived macrophages; assay: MdM assay: LPS-triggered TNFα (ELISA); assay type: cell-based, human; details: Macrophage; human MdM; LPS 200 ng/mL; supernatant after 20 h; inhibition of TNFα; read-out: TNFα EC50
Procedure, shortened: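 TNFα secretion quantified by streptavidin-HRP/luminol sandwich ELISA in supernatants collected 20 h after LPS (200 ng/mL). Macrophages derived from magnetically isolated human CD14+ monocytes were used at day 10, with compound added 1 h before LPS; final DMSO 0.2%.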

T2 sequence (Q9Y2K2 59-365 limits assumed): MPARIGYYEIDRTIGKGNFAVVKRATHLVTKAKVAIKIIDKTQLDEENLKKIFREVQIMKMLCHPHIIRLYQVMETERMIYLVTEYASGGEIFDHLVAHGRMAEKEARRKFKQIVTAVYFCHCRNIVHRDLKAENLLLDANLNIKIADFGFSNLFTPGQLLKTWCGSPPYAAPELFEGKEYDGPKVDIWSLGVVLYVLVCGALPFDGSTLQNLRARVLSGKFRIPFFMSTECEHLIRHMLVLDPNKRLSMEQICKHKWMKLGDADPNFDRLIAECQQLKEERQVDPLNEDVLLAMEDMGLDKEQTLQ
T1 sequence (P57059 whole entry): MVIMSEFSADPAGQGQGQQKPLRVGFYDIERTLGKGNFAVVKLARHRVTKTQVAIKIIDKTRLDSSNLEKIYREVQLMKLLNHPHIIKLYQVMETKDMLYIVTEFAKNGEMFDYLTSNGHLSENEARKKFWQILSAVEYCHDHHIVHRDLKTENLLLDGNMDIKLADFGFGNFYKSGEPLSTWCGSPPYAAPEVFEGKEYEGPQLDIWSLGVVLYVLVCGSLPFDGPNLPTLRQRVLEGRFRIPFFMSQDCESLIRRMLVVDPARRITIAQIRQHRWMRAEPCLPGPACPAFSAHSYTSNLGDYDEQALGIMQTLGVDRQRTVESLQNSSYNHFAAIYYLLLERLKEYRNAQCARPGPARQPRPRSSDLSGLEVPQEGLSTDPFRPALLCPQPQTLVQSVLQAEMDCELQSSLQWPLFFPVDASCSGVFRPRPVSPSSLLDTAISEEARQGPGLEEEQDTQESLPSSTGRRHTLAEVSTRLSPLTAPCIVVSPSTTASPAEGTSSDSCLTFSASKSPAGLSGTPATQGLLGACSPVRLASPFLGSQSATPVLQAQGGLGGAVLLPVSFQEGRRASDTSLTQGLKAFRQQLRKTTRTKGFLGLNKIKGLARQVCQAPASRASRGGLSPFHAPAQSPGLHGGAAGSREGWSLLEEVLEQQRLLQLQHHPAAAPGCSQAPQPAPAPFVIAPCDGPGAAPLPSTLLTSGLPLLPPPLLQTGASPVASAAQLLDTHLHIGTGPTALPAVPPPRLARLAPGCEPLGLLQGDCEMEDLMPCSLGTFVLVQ

SMILES | IC50 [1] | IC50 [2] | EC50 [3]
COc1cc(-c2cnc3cc(C(C)(C#N)CO)ccn23)cc(OC(F)F)c1C(=O)NC1CC1 (stereo not drawn) [Cpd 176, 4-[7-(1-cyano-2-hydroxy-1-methyl-ethyl)imidazo[1,2-a]pyridin-3-yl]-N-cyclopropyl-2-(difluoromethoxy)-6-methoxy-benzamide] | > 500 nM | 10 to 100 nM | 1000 to 5000 nM
COc1cc(-c2cnn3cc(C(C)(C)CO)ccc23)cc(OC(F)F)c1C(=O)NC1CC1 [Cpd 236, N-cyclopropyl-2-(difluoromethoxy)-4-[6-(2-hydroxy-1,1-dimethyl-ethyl)pyrazolo[1,5-a]pyridin-3-yl]-6-methoxy-benzamide] | > 500 nM | 10 to 100 nM | 100 to 1000 nM
COc1cc(-c2cnc3cc(C4(C#N)COC4)ccn23)cc(OC(F)F)c1C(=O)NC1CC1 [Cpd 117, 4-[7-(3-cyanooxetan-3-yl)imidazo[1,2-a]pyridin-3-yl]-N-cyclopropyl-2-(difluoromethoxy)-6-methoxy-benzamide] | > 500 nM | 0.01 to 10 nM | 100 to 1000 nM
COc1cc(-c2cnc3cc(C(O)CC#N)ccn23)cc(OC(F)F)c1C(=O)NC1CC1 (stereo not drawn) [Cpd 175, 4-[7-(2-cyano-1-hydroxy-ethyl)imidazo[1,2-a]pyridin-3-yl]-N-cyclopropyl-2-(difluoromethoxy)-6-methoxy-benzamide] | > 500 nM | 10 to 100 nM | 1000 to 5000 nM
COc1cc(-c2cnn3cc(C4(C#N)CC4)ccc23)cc(OC(F)F)c1C(=O)N[C@@H]1C[C@@H]1F [Cpd 235, 4-[6-(1-cyanocyclopropyl)pyrazolo[1,5-a]pyridin-3-yl]-2-(difluoromethoxy)-N-[(1R,2S)-2-fluorocyclopropyl]-6-methoxy-benzamide] | 100 to 500 nM | 0.01 to 10 nM | 100 to 1000 nM
